Target: citron kinase (CIT/CRIK) (Homo sapiens, UniProt O14578)
Assay: in vitro kinase assay
Assay type: biochemical

Chain of citron kinase (CIT/CRIK) (O14578 whole entry): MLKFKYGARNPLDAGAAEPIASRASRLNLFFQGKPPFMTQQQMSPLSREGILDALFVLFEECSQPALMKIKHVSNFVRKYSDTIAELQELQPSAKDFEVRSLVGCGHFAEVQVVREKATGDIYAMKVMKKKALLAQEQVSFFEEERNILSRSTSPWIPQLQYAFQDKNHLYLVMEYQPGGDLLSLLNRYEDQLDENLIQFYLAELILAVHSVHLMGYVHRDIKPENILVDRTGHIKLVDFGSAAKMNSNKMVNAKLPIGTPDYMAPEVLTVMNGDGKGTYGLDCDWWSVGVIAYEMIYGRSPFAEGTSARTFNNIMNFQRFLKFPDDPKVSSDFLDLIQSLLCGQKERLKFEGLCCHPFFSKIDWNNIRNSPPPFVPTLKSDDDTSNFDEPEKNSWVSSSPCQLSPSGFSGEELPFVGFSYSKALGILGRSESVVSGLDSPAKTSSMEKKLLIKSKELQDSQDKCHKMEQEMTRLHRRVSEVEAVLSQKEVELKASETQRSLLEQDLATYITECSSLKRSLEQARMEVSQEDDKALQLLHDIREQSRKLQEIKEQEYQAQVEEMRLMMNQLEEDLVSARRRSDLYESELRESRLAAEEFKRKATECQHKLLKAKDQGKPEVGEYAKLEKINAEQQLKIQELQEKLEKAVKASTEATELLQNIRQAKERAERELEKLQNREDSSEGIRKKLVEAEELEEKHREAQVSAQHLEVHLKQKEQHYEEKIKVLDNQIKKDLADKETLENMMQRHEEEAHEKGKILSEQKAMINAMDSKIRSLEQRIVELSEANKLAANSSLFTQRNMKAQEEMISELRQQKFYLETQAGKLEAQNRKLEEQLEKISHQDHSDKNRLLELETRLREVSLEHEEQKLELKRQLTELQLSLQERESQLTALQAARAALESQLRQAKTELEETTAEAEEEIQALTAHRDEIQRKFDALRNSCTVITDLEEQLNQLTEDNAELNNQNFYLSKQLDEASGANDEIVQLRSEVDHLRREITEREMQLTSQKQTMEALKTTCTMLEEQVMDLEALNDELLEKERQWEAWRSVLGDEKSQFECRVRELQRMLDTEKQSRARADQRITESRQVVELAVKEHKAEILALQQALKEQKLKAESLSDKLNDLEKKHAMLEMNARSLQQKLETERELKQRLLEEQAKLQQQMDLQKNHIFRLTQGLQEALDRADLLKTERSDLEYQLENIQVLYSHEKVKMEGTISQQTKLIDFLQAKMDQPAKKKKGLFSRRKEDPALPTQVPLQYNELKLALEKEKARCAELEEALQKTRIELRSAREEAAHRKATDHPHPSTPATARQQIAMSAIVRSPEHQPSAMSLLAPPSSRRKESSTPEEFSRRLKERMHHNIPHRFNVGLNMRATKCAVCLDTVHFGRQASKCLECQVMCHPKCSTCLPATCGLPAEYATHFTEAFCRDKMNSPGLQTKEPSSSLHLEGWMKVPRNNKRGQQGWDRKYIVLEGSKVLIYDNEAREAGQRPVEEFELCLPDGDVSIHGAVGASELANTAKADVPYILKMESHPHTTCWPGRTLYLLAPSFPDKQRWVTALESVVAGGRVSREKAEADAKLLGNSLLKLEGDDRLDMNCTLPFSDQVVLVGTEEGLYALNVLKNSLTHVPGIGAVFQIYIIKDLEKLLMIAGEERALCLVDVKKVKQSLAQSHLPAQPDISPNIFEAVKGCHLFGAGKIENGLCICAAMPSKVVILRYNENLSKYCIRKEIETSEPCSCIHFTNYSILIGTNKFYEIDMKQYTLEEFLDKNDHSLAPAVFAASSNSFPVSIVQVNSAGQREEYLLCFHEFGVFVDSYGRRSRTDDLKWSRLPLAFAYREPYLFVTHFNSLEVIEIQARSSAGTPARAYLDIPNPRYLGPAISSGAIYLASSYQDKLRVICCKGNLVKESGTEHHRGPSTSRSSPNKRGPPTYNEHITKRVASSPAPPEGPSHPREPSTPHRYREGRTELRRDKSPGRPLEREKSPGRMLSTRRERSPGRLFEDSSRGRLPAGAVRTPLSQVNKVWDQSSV

## CC(=O)c1cnc2ccc(-c3cc(Cl)c(O)c(Cl)c3)nc2c1N[C@H]1CC[C@H](CN(C)C)CC1 [OTS-167]
  IC50: ~0.01 µM

— PMC10841833 (Cancer research, 2023)
